{"source": "patent US6355799B1", "about": "“Substituted benzene compounds, process for their preparation, and herbicidal and defoliant compositions containing them” (ISK Americas Incorporated, priority 1997, dated 2002)", "assay_type_in_all_cases": "in vivo", "key": {"[1]": {"tested_on": "green foxtail (Setaria viridis, SETVI)", "experiment": "Pre-emerge test, greenhouse herbicide activity screening", "details": "pre-emerge, 14 days after application, rating scale 0-100", "summary_of_the_method": "(§1)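 Compounds in acetone were track-sprayed at 15–1000 g ai/ha: pre-emergence onto soil sown the previous day, then top-watered to incorporate and later bottom-watered; post-emergence onto 2–3 leaf plants with 0.25% v/v surfactant, bottom-watered only. Ratings on a 0–100 phytotoxicity scale were taken at day 14.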"}, "[2]": {"tested_on": "johnsongrass (Sorghum halepense, SORHA)", "experiment": "Pre-emerge test, greenhouse herbicide activity screening", "details": "pre-emerge, 14 days after application, rating scale 0-100", "summary_of_the_method": "as §1"}, "[3]": {"tested_on": "barnyardgrass (Echinochloa crus-galli, ECHCG)", "experiment": "Pre-emerge test, greenhouse herbicide activity screening", "details": "pre-emerge, 14 days after application, rating scale 0-100", "summary_of_the_method": "as §1"}, "[4]": {"tested_on": "lambsquarters (Chenopodium album, CHEAL)", "experiment": "Pre-emerge test, greenhouse herbicide activity screening", "details": "pre-emerge, 14 days after application, rating scale 0-100", "summary_of_the_method": "as §1"}, "[5]": {"tested_on": "velvetleaf (Abutilon theophrasti, ABUTH)", "experiment": "Pre-emerge test, greenhouse herbicide activity screening", "details": "pre-emerge, 14 days after application, rating scale 0-100", "summary_of_the_method": "as §1"}, "[6]": {"tested_on": "ivyleaf morningglory (Ipomoea hederacea, IPOHE)", "experiment": "Pre-emerge test, greenhouse herbicide activity screening", "details": "pre-emerge, 14 days after application, rating scale 0-100", "summary_of_the_method": "as §1"}, "[7]": {"tested_on": "common ragweed (Ambrosia artemisizfolia L., AMBEL)", "experiment": "Pre-emerge test, greenhouse herbicide activity screening", "details": "pre-emerge, 14 days after application, rating scale 0-100", "summary_of_the_method": "as §1"}, "[8]": {"tested_on": "sicklepod (Cassia obtusifolia, CASOB)", "experiment": "Pre-emerge test, greenhouse herbicide activity screening", "details": "pre-emerge, 14 days after application, rating scale 0-100", "summary_of_the_method": "as §1"}, "[9]": {"tested_on": "large crabgrass (Digitaria sanguinalis, DIGSA)", "experiment": "Pre-emerge test, greenhouse herbicide activity screening", "details": "pre-emerge, 14 days after application, rating scale 0-100", "summary_of_the_method": "as §1"}, "[10]": {"tested_on": "field corn (Zea mays L., var. Dekalb 535, CORN)", "experiment": "Post-emerge test, crop safety", "details": "post-emerge, 14 days after application, rating scale 0-100", "summary_of_the_method": "(§2)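 Rating: 0–100 visual injury, 14 DAA. Application: acetone, 187 l/ha, 15–1000 g ai/ha, flat-fan track sprayer with nozzle 40–45 cm above soil or canopy. Post-emerge runs used 0.25% v/v surfactant on 2–3 leaf plants.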"}, "[11]": {"tested_on": "upland rice (Oryza sp., var. Tebonnet, RICE)", "experiment": "Post-emerge test, crop safety", "details": "post-emerge, 14 days after application, rating scale 0-100", "summary_of_the_method": "as §2"}, "[12]": {"tested_on": "green foxtail (Setaria viridis, SETVI)", "experiment": "Post-emerge test, greenhouse herbicide activity screening", "details": "post-emerge, 14 days after application, rating scale 0-100", "summary_of_the_method": "(§3)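 Plants grown in 10 cm pots of sandy loam mix received acetone-dissolved compounds through a moving flat-fan nozzle. Doses ranged from 15 to 1000 g ai/ha. Pre-emerge pots were seeded one day earlier, post-emerge pots 8–21 days earlier. Fourteen days on, each pot was graded 0–100 for damage.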"}, "[13]": {"tested_on": "johnsongrass (Sorghum halepense, SORHA)", "experiment": "Post-emerge test, greenhouse herbicide activity screening", "details": "post-emerge, 14 days after application, rating scale 0-100", "summary_of_the_method": "as §3"}, "[14]": {"tested_on": "barnyardgrass (Echinochloa crus-galli, ECHCG)", "experiment": "Post-emerge test, greenhouse herbicide activity screening", "details": "post-emerge, 14 days after application, rating scale 0-100", "summary_of_the_method": "as §3"}, "[15]": {"tested_on": "lambsquarters (Chenopodium album, CHEAL)", "experiment": "Post-emerge test, greenhouse herbicide activity screening", "details": "post-emerge, 14 days after application, rating scale 0-100", "summary_of_the_method": "as §3"}, "[16]": {"tested_on": "velvetleaf (Abutilon theophrasti, ABUTH)", "experiment": "Post-emerge test, greenhouse herbicide activity screening", "details": "post-emerge, 14 days after application, rating scale 0-100", "summary_of_the_method": "as §3"}, "[17]": {"tested_on": "ivyleaf morningglory (Ipomoea hederacea, IPOHE)", "experiment": "Post-emerge test, greenhouse herbicide activity screening", "details": "post-emerge, 14 days after application, rating scale 0-100", "summary_of_the_method": "as §3"}, "[18]": {"tested_on": "sicklepod (Cassia obtusifolia, CASOB)", "experiment": "Post-emerge test, greenhouse herbicide activity screening", "details": "post-emerge, 14 days after application, rating scale 0-100", "summary_of_the_method": "as §3"}, "[19]": {"tested_on": "large crabgrass (Digitaria sanguinalis, DIGSA)", "experiment": "Post-emerge test, greenhouse herbicide activity screening", "details": "post-emerge, 14 days after application, rating scale 0-100", "summary_of_the_method": "as §3"}, "[20]": {"tested_on": "redroot pigweed (Amaranthus retroflexus, AMARE)", "experiment": "Post-emerge test, greenhouse herbicide activity screening", "details": "post-emerge, 14 days after application", "summary_of_the_method": "as §3"}, "[21]": {"tested_on": "field corn (Zea mays L., var. Dekalb 535, CORN)", "experiment": "Pre-emerge test, crop safety", "details": "pre-emerge, 14 days after application, rating scale 0-100", "summary_of_the_method": "(§4)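 Fourteen days after spraying, crop and weed injury was graded visually from 0, no effect, to 100, every plant dead. Test substances were dissolved in acetone and applied at 15–1000 g ai/ha with a flat-fan nozzle. Application was either pre-emergence, one day after sowing, or post-emergence at the 2–3 leaf stage.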"}, "[22]": {"tested_on": "upland rice (Oryza sp., var. Tebonnet, RICE)", "experiment": "Pre-emerge test, crop safety", "details": "pre-emerge, 14 days after application, rating scale 0-100", "summary_of_the_method": "as §4"}, "[23]": {"tested_on": "redroot pigweed (Amaranthus retroflexus, AMARE)", "experiment": "Pre-emerge test, greenhouse herbicide activity screening", "details": "pre-emerge, 14 days after application, rating scale 0-100", "summary_of_the_method": "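Herbicidal damage is scored 0 (none) to 100 (complete plant death) two weeks after a simulated field spray. Rates span 15–1000 g ai/ha, delivered in acetone at 187 l/ha. For post-emergence treatments, plants have 2–3 leaves and the spray carries 0.25% v/v non-ionic surfactant.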"}}, "data": [{"smiles": "CCCOC(=O)C(Cl)Cc1c(OCC)c(Cl)cc(F)c1-n1c(=O)cc(C(F)(F)F)n(C)c1=O", "note": "(stereo not shown) [14-66]", "values": [{"measurement": "phytotoxicity rating SETVI", "setting": "[1]; 63 g ai/ha", "value": 20}, {"measurement": "phytotoxicity rating SETVI", "setting": "[1]; 250 g ai/ha", "value": 100}, {"measurement": "phytotoxicity rating SORHA", "setting": "[2]; 63 g ai/ha", "value": 0}, {"measurement": "phytotoxicity rating SORHA", "setting": "[2]; 250 g ai/ha", "value": 30}, {"measurement": "phytotoxicity rating ECHCG", "setting": "[3]; 63 g ai/ha", "value": 50}, {"measurement": "phytotoxicity rating ECHCG", "setting": "[3]; 250 g ai/ha", "value": 100}, {"measurement": "phytotoxicity rating CHEAL", "setting": "[4]; 63 g ai/ha", "value": 90}, {"measurement": "phytotoxicity rating CHEAL", "setting": "[4]; 250 g ai/ha", "value": 100}, {"measurement": "phytotoxicity rating ABUTH", "setting": "[5]; 63 g ai/ha", "value": 90}, {"measurement": "phytotoxicity rating ABUTH", "setting": "[5]; 250 g ai/ha", "value": 100}, {"measurement": "phytotoxicity rating IPOHE", "setting": "[6]; 63 g ai/ha", "value": 0}, {"measurement": "phytotoxicity rating IPOHE", "setting": "[6]; 250 g ai/ha", "value": 60}, {"measurement": "phytotoxicity rating AMBEL", "setting": "[7]; 63 g ai/ha", "value": 0}, {"measurement": "phytotoxicity rating AMBEL", "setting": "[7]; 250 g ai/ha", "value": 0}, {"measurement": "phytotoxicity rating CASOB", "setting": "[8]; 63 g ai/ha", "value": 0}, {"measurement": "phytotoxicity rating CASOB", "setting": "[8]; 250 g ai/ha", "value": 0}, {"measurement": "phytotoxicity rating DIGSA", "setting": "[9]; 63 g ai/ha", "value": 90}, {"measurement": "phytotoxicity rating DIGSA", "setting": "[9]; 250 g ai/ha", "value": 100}, {"measurement": "Post-emerge Herbicidal Activity CORN (crop damage rating)", "setting": "[10]; 63 g ai/ha", "value": 90}, {"measurement": "Post-emerge Herbicidal Activity CORN (crop damage rating)", "setting": "[10]; 250 g ai/ha", "value": 100}, {"measurement": "Post-emerge Herbicidal Activity RICE (crop damage rating)", "setting": "[11]; 63 g ai/ha", "value": 0}, {"measurement": "Post-emerge Herbicidal Activity RICE (crop damage rating)", "setting": "[11]; 250 g ai/ha", "value": 10}, {"measurement": "Post-emerge Herbicidal Activity SETVI (phytotoxicity rating)", "setting": "[12]; 63 g ai/ha", "value": 95}, {"measurement": "Post-emerge Herbicidal Activity SETVI (phytotoxicity rating)", "setting": "[12]; 250 g ai/ha", "value": 100}, {"measurement": "Post-emerge Herbicidal Activity SORHA (phytotoxicity rating)", "setting": "[13]; 63 g ai/ha", "value": 60}, {"measurement": "Post-emerge Herbicidal Activity SORHA (phytotoxicity rating)", "setting": "[13]; 250 g ai/ha", "value": 80}, {"measurement": "Post-emerge Herbicidal Activity ECHCG (phytotoxicity rating)", "setting": "[14]; 63 g ai/ha", "value": 100}, {"measurement": "Post-emerge Herbicidal Activity ECHCG (phytotoxicity rating)", "setting": "[14]; 250 g ai/ha", "value": 100}, {"measurement": "Post-emerge Herbicidal Activity CHEAL (phytotoxicity rating)", "setting": "[15]; 63 g ai/ha", "value": 80}, {"measurement": "Post-emerge Herbicidal Activity CHEAL (phytotoxicity rating)", "setting": "[15]; 250 g ai/ha", "value": 99}, {"measurement": "Post-emerge Herbicidal Activity ABUTH (phytotoxicity rating)", "setting": "[16]; 63 g ai/ha", "value": 100}, {"measurement": "Post-emerge Herbicidal Activity ABUTH (phytotoxicity rating)", "setting": "[16]; 250 g ai/ha", "value": 100}, {"measurement": "Post-emerge Herbicidal Activity IPOHE (phytotoxicity rating)", "setting": "[17]; 63 g ai/ha", "value": 70}, {"measurement": "Post-emerge Herbicidal Activity IPOHE (phytotoxicity rating)", "setting": "[17]; 250 g ai/ha", "value": 90}, {"measurement": "Post-emerge Herbicidal Activity CASOB (phytotoxicity rating)", "setting": "[18]; 63 g ai/ha", "value": 80}, {"measurement": "Post-emerge Herbicidal Activity CASOB (phytotoxicity rating)", "setting": "[18]; 250 g ai/ha", "value": 90}, {"measurement": "Post-emerge Herbicidal Activity DIGSA (phytotoxicity rating)", "setting": "[19]; 63 g ai/ha", "value": 100}, {"measurement": "Post-emerge Herbicidal Activity DIGSA (phytotoxicity rating)", "setting": "[19]; 250 g ai/ha", "value": 100}, {"measurement": "Post-emerge Herbicidal Activity AMARE (phytotoxicity rating)", "setting": "[20]; 63 g ai/ha, rating scale 0-100 (0 no damage, 100 complete death)", "value": 95}, {"measurement": "Post-emerge Herbicidal Activity AMARE (phytotoxicity rating)", "setting": "[20]; 250 g ai/ha, rating scale 0-100", "value": 100}, {"measurement": "phytotoxicity rating CORN", "setting": "[21]; 63 g ai/ha", "value": 0}, {"measurement": "phytotoxicity rating CORN", "setting": "[21]; 250 g ai/ha", "value": 0}, {"measurement": "phytotoxicity rating RICE", "setting": "[22]; 63 g ai/ha", "value": 0}, {"measurement": "phytotoxicity rating RICE", "setting": "[22]; 250 g ai/ha", "value": 20}, {"measurement": "phytotoxicity rating AMARE", "setting": "[23]; 63 g ai/ha", "value": 100}, {"measurement": "phytotoxicity rating AMARE", "setting": "[23]; 250 g ai/ha", "value": 100}]}]}
